From US7311393B2, “Inkjet recording ink and method of inkjet recording” (Fujifilm Corporation, priority 2002, dated 2007) come the findings set out here.

Bounds are passed on as bounds.

The nature of series [1]: Oxidation potential of dye. The series is classed as physicochemical. As to conditions: comparative dyes. The method, then: More specifically, a test sample is dissolved to a concentration of 1×10^−4 to 1×10^−6 mol/liter in a solvent such as dimethylformamide or acetonitrile containing a supporting electrolyte such as sodium perchlorate or tetrapropylammonium perchlorate and the oxidation potential is measured as a value to SCE (saturated calomel electrode) by using a cyclic voltammetry or a direct current polarography. This value sometimes deviates on the order of tens of millivolt due to the effect of liquid junction potential, liquid resistance of sample solution, or the like, but the reproducibility of potential can be guaranteed by adding a standard sample (for example, hydroquinone).
In order to univocally specify the potential, in the present invention, the value (vs SCE) measured by a direct current polarography in a dimethylformamide (concentration of dye: 0.001 mol dm^−3) containing 0.1 mol dm^−3 of tetrapropylammonium perchlorate as the supporting electrolyte is used as the oxidation potential of the dye.

Series [2] can be described thus: Spectral absorption characteristics of dye. The series is classed as physicochemical. Particulars: comparative dyes. The text has this: The dye for use in the present invention preferably has good fastness and also has good color hue, particularly, no tailing on the long-wave side in the absorption spectrum. […]

`Cc1nn(-c2ccc(S(=O)(=O)[O-])cc2)c(O)c1/N=N/c1cccc(S(=O)(=O)Nc2cc(C(=O)[O-])cc(C(=O)[O-])c2)c1.[K+].[K+].[K+]` [Dye (C)]: in series [1], the oxidation potential is given as ≤ 1.0 V (vs SCE). The “I(λmax)/I(λmax+70 nm)” value in series [2] was no more than 0.4.

Regarding Direct Yellow 11 [Dye (D)], the oxidation potential in series [1] is given as ≤ 1.0 V (vs SCE). Also, the “I(λmax)/I(λmax+70 nm)” value in series [2] was greater than 0.4.
